Results on three compounds are retold here after article PMC6836411, “Identification and characterization of the Cucurbitacins, a novel class of small-molecule inhibitors of Tropomyosin receptor kinase a” (BMC Complementary and Alternative Medicine, 2019).

Holding throughout (assay type): biochemical
The target of experiment [1] is CAMK1 (Homo sapiens, UniProt Q14012). The experiment in a line: radiometric kinase panel, single dose […], duplicate. As to conditions: read-out: % remaining activity at 500 nM.
Experiment [2] addresses T1, Aurora B (Homo sapiens, UniProt Q96GD4).
T1 construct: gene AURKB
The experiment is described as above. The following applies: read-out: % remaining activity at 500 nM.

Experiment [3] has as its target T2, Tropomyosin receptor kinase A (TrkA) (Homo sapiens, UniProt P04629).
T2 construct: gene NTRK1
Put plainly: radiometric [γ-33P]ATP kinase assay, poly(Glu,Tyr) substrate, dose-response.

T2 sequence (P04629 441-796 limits assumed): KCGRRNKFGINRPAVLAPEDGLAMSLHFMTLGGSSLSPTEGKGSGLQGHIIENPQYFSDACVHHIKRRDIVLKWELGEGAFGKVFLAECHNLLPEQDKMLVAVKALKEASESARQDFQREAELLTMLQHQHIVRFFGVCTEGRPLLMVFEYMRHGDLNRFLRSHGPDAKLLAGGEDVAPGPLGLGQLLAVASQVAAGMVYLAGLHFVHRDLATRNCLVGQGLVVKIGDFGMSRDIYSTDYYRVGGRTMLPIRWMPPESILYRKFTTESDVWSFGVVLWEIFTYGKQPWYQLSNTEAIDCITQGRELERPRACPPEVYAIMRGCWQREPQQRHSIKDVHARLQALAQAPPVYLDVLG
Sequence of CAMK1 (Q14012 whole entry): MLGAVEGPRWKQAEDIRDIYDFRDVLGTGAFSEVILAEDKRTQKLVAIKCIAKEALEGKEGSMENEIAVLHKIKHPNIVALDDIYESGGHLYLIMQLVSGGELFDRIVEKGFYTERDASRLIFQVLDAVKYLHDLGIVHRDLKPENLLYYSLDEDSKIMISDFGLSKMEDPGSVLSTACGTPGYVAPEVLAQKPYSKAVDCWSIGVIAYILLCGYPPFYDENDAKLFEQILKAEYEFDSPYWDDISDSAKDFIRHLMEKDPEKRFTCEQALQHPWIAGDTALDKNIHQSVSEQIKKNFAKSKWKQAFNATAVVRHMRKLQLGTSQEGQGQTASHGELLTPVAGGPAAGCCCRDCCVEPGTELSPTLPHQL
T1 sequence (Q96GD4 whole entry): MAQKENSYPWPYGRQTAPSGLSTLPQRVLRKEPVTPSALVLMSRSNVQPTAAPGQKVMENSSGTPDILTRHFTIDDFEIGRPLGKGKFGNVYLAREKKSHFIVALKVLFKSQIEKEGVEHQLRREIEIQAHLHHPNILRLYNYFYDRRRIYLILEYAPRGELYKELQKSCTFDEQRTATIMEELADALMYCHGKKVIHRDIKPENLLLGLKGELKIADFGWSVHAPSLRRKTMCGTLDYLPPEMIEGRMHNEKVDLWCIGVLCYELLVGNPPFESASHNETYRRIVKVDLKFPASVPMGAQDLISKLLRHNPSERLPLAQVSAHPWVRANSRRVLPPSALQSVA

The term remaining activity denotes the signal under treatment as a percentage of the control signal. One may read the IC50 as the concentration that inhibits the measured activity by half. A low value points to greater potency in that assay. Regarding `CC(=O)OC(C)(C)/C=C/C(=O)[C@](C)(O)[C@H]1[C@H](O)C[C@@]2(C)[C@@H]3CC=C4[C@@H](C[C@H](O)C(=O)C4(C)C)[C@]3(C)C(=O)C[C@]12C` [CuB, Cucurbitacin B], the figures for the remaining activity at 0.5 µM in experiment [1] and in experiment [2] were 12.9 ± 3.7% and 23.2 ± 2.8%, respectively. In addition, the IC50 in experiment [3] was found to be 178 nM.

As to `CC(=O)OC(C)(C)/C=C/C(=O)[C@](C)(O)[C@H]1[C@H](O)C[C@@]2(C)[C@@H]3CC=C4[C@@H](C=C(O)C(=O)C4(C)C)[C@]3(C)C(=O)C[C@]12C` [CuE, Cucurbitacin E], in experiment [3], the IC50 is 549 nM.

In the case of `CC(C)(O)/C=C/C(=O)[C@](C)(O)[C@H]1[C@H](O)C[C@@]2(C)[C@@H]3CC=C4[C@@H](C=C(O)C(=O)C4(C)C)[C@]3(C)C(=O)C[C@]12C` [CuI, Cucurbitacin I], the IC50 in experiment [3] was determined as 959 nM.
